Experimental data: ChEMBL document CHEMBL1129885, “Rational design of selective thrombin inhibitors” (Bioorg Med Chem Lett, 1997)

How the values were obtained:
[1] = biological target: Prothrombin (Bos taurus, UniProt P00735); test: Inhibitory effect against bovine thrombin
[2] = biological target: T1, Serine protease 1 (Bos taurus, UniProt P00760); test: Inhibitory effect of compound was measured in bovine trypsin
T1 sequence (P00760 whole entry): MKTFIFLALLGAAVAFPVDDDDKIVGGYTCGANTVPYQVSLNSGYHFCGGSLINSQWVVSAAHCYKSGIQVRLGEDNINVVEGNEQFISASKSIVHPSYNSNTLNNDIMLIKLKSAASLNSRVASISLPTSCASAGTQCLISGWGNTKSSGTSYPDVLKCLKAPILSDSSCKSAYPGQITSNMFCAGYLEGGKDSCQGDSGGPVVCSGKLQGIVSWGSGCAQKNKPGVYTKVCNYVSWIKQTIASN

[3] = Ratio of inhibitory effect of bovine trypsin to that of bovine thrombin

SMILES	Ki [1] [µM]	Ki [2] [µM]	Ratio [3]
N=C(NN)c1ccc(C[C@H](NS(=O)(=O)c2ccc3cc4ccccc4cc3c2)C(=O)N2CCCCCC2)cc1	0.001		
CN=C(N)c1ccc(C[C@H](NS(=O)(=O)c2ccc3ccccc3c2)C(=O)N2CCCCCC2)cc1	0.0455	545	
N=C(N)c1ccc(C[C@@H](NC(=O)CNS(=O)(=O)c2ccc3ccccc3c2)C(=O)N2CCCCCC2)cc1	0.02		
N=C(N)c1ccc(C[C@@H](NC(=O)CNS(=O)(=O)c2ccc3ccccc3c2)C(=O)N2CCCCC2)cc1	0.0065		
N=C(N)c1ccc(C[C@H](NS(=O)(=O)c2ccc3ccccc3c2)C(=O)N2CCCCCC2)cc1	0.0524	8.65	166
N=C(NN)c1ccc(C[C@H](NS(=O)(=O)c2ccc3ccccc3c2)C(=O)N2CCCCCC2)cc1	0.00147	3.73	2540

Further lines, results first:

Ki [1] [µM]	Ki [2] [µM]	Ratio [3]	SMILES
5.37	192		NN=C(N)c1ccc(C[C@@H](NC(=O)CNS(=O)(=O)c2ccc3ccccc3c2)C(=O)N2CCCCC2)cc1
		12000	CNC(=N)c1ccc(C[C@H](NS(=O)(=O)c2ccc3ccccc3c2)C(=O)N2CCCCCC2)cc1
1.14	316		N=C(NO)c1ccc(C[C@H](NS(=O)(=O)c2ccc3ccccc3c2)C(=O)N2CCCCCC2)cc1
		36	N=C(NN)c1ccc(C[C@@H](NC(=O)CNS(=O)(=O)c2ccc3ccccc3c2)C(=O)N2CCCCC2)cc1
0.05			N=C(N)c1ccc(C[C@H](NS(=O)(=O)c2ccc3cc4ccccc4cc3c2)C(=O)N2CCCCCC2)cc1
13.6			CCNC(=N)c1ccc(C[C@H](NS(=O)(=O)c2ccc3ccccc3c2)C(=O)N2CCCCCC2)cc1
4.32	81.5		CN=C(N)c1ccc(C[C@@H](NC(=O)CNS(=O)(=O)c2ccc3ccccc3c2)C(=O)N2CCCCC2)cc1
2.7			NN=C(N)c1ccc(C[C@@H](NC(=O)CNS(=O)(=O)c2ccc3ccccc3c2)C(=O)N2CCCCCC2)cc1
		277	N/C(=N\O)c1ccc(C[C@H](NS(=O)(=O)c2ccc3ccccc3c2)C(=O)N2CCCCCC2)cc1
		19	CNC(=N)c1ccc(C[C@@H](NC(=O)CNS(=O)(=O)c2ccc3ccccc3c2)C(=O)N2CCCCC2)cc1
